Results as given in patent publication US20240269139A1, “COMPOUNDS FOR TARGETED PROTEIN DEGRADATION OF KINASES” (DANA-FARBER CANCER INSTITUTE, INC., priority 2020, published 2024).
Read-outs that look alike come from different tables or passages of the source.

How the values were obtained:
Assay type in all cases: cell-based
[1] = biological target: T1, protein kinases (human kinome) (Homo sapiens, UniProt O14965)
T1 sequence (O14965 1-403): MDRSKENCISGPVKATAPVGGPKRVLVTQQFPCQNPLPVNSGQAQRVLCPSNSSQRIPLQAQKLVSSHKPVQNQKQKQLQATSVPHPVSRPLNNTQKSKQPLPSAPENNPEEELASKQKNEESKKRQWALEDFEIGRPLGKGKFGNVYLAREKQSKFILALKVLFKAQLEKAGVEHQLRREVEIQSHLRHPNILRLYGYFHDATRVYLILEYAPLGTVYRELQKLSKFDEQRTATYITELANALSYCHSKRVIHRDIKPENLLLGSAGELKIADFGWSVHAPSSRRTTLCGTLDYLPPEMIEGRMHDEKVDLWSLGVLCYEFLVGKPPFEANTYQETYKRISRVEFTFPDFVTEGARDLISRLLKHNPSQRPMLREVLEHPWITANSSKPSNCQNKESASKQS

[2] = biological target: protein kinases (human kinome) (Homo sapiens, UniProt Q9H0K1); details: for logFC of SIK2: Accession Q9H0K1; for logFC SIK2 (Q9H0K1): direction of change down
[3] = test system: protein kinases (human kinome)
[4] = AURKB Q96GD4-5, experiment wp134

protein kinases (human kinome) (Homo sapiens, UniProt Q9H0K1), sequence (Q9H0K1 whole entry): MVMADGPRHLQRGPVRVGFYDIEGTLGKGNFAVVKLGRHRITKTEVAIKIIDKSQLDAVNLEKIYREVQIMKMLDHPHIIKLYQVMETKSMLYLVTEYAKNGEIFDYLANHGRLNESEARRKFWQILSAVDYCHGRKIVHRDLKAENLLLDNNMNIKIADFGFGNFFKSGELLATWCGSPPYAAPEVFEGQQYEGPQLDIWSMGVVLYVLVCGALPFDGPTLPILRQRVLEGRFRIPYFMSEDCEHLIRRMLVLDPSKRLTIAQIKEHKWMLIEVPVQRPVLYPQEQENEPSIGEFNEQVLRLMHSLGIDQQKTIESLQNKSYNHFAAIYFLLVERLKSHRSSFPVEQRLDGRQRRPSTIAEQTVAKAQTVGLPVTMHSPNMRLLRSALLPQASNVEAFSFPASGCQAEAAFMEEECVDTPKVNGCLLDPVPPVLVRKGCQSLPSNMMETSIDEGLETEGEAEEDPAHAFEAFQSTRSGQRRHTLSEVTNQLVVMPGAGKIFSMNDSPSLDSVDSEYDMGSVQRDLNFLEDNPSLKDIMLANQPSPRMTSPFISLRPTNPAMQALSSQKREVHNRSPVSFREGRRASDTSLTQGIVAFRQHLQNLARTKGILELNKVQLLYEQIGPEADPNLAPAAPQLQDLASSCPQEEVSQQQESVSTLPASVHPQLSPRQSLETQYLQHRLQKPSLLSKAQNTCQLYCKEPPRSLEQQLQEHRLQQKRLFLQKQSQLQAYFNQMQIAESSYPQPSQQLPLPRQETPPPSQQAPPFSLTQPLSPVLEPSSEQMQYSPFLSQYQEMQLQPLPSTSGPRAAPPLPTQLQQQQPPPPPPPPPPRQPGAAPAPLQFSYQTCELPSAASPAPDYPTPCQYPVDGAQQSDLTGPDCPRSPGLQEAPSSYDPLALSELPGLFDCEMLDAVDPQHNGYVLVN

## O=C(COc1cccc2c1C(=O)N(C1CCC(=O)NC1=O)C2=O)NCCCCCCCN1CCc2cc(Nc3ncc(C4CC4)c(NCCCNC(=O)C4CCC4)n3)ccc2C1 (centres unmarked) [BSJ.04.178]
[1]; experiment wp134
  logFC AURKA (O14965): −0.4772
[2]; experiment wp134
  logFC of SIK2: −1.351
  logFC SIK2 (Q9H0K1): −1.351
[3]; [4]
  logFC: −0.5074
  logFC AURKB: −0.5074
[3]; CDK9 (P50750-2) protein abundance, degrader vs DMSO, down
  logFC: −1.43
[3]; MARK3 (P27448-5), experiment wp134
  logFC: −0.4977
[3]; experiment wp134
  logFC CDK9 (P50750-2): −1.43
[3]; experiment wp134, direction of change down
  logFC MARK3 (P27448-5): −0.4977

## CS(=O)(=O)Nc1cccc(-c2csc3cnc(Nc4ccc(N5CCN(CCCCCOc6cccc7c6C(=O)N(C6CCC(=O)NC6=O)C7=O)CC5)cc4)nc23)c1 (centres unmarked) [DB0614, N-(3-(2-((4-(4-(5-((2-(2,6-Dioxopiperidin-3-yl)-1,3-dioxoisoindolin-4-yl)oxy)pentyl)piperazin-1-yl)phenyl)amino)thieno[3,2-d]pyrimidin-7-yl)phenyl)methanesulfonamide]
[1]; experiment wp045
  logFC AURKA (O14965): −0.385
[1]; experiment wp117
  logFC AURKA (O14965): −0.4547
[2]; experiment wp045
  logFC of SIK2: −0.5292
[2]; experiment wp117
  logFC of SIK2: −0.3766
  logFC SIK2 (Q9H0K1): −0.3766
[2]; SIK2 (Q9H0K1), experiment wp045, down
  logFC SIK2: −0.5292
[3]; CAMKK1 (Q8N5S9-2), experiment wp045
  logFC: −0.6487
[3]; Experiment wp045
  logFC of CAMKK1 (Q8N5S9-2): −0.6487
[3]; Experiment wp045, direction down
  logFC MAPK8 (P45983-4): −0.6882
[3]; Experiment wp117
  logFC of MAPK8 (P45983-2): −0.6328
[3]; Experiment wp117, direction down
  logFC MAPK8 (P45983-2): −0.6328
[3]; LCK, accession P06239-3, experiment wp045, direction of change down
  logFC LCK: −0.33
[3]; MAPK8 P45983-4, experiment wp045
  logFC MAPK8: −0.6882
[3]; PTK2B (Q14289-2), experiment wp117, direction down
  logFC: −1.203
[3]; PTK2B, accession Q14289-2, experiment wp117, direction of change down
  logFC PTK2B: −1.203
[3]; as stated for the structure in the embodiments
  kinases the bifunctional compound degrades: AAK1, AURKA, BMP2K, CAMKK1, CDK16, CDK4, CDK6, EIF2AK2, FER, GAK, LCK, LIMK2, MAP3K11, MAPK8, MAPK9, NEK9, PLK4, PTK2B, SIK2, STK17A, STK17B, ULK1, ULK3, and WEE1
[3]; experiment wp045, direction of change down
  logFC LCK (P06239-3): −0.33
[3]; experiment wp117
  logFC CDK16 (Q00536-2): −0.5528
[3]; kinases significantly downregulated vs DMSO (fold change cutoff −1.25, P-value<0.01), ≤8 h, 0.1-5 μM degrader, 7 cell lines
  Kinase hits: AAK1, AURKA, BMP2K, CAMKK1, CDK16, CDK4, CDK6, EIF2AK2, FER, GAK, LCK, LIMK2, MAP3K11, MAPK8, MAPK9, NEK9, PLK4, PTK2B, SIK2, STKI7A, STKI7B, ULK1, ULK3, WEE1
[3]; number of degraded kinases per library compound
  Total no. kinase hits: 24
